Results from paper PMC7311950, “Potent Tetrahydroquinolone Eliminates Apicomplexan Parasites” (Frontiers in Cellular and Infection Microbiology, 2020).
Values after ≈ are worked out from the molar mass of the structure shown.

Experiments:
[1] = tested on: T. gondii RH-YFP tachyzoites; assay: In vitro challenge assay, RH strain YFP tachyzoites in HFF; format: cell-based; conditions: Toxoplasma gondii; RH-YFP tachyzoites in HFF; Figure 1A; read-out: Tachy IC50
Protocol: RH strain YFP Tachyzoites. Protocol was adapted from Fomovska et al. ([2012a],[b]) for HFF. HFF were cultured on a flat, clear-bottomed, black 96-well plate to 90–100% confluence. IMDM (1x, [+] glutamine, [+] 25 mM HEPES, [+] Phenol red, 10% FBS [Gibco, Denmark]) was removed and replaced with IMDM-C(1x, [+] glutamine, [+] 25 mM HEPES, [–] Phenol red, 10% FBS)[Gibco, Denmark]). RH-YFP, lysed from host cells by passing twice through a 27-gauge needle, were counted, then diluted to 32,000/mL in IMDM-C. HFF were infected with 3200 RH-YFP, then returned to 37°C, CO2 (5%) incubator for 1–2 h for infection. Various concentrations of the compounds in 20 μL IMDM-C were added to each well. There were triplicates for each condition. Controls were pyrimethamine/sulfadiazine (standard treatment), 0.1% DMSO only, HFF only, and untreated cultures of HFF infected with 2-fold dilutions of YFP expressing parasites (called “YFP gradient” to establish amount of color from known numbers of YFP expressing parasites). Cells were incubated at 37°C for 72 h. Plates were read using a fluorimeter (Synergy H4 Hybrid Reader, BioTek) to ascertain amount of relative fluorescence units (RFU) YFP, to measure parasite burden after treatment. Data were collected using Gen5 software with IC50 calculated by graphical analysis in Excel.
An initial screening assay of 10 μM, 1 μM, 100 nM, and 10 nM of the compounds was performed. Compounds were not considered effective or pursued for further analysis if there was no inhibition of tachyzoites at 1 μM. If compounds were effective at 1 μM, another experiment was performed to assess effect at 1 μM, 500, 250, 125, 62.5, and 31.25 nM.

[2] = tested on: T. gondii EGS strain bradyzoites; assay: In vitro challenge assay for EGS strain bradyzoites; format: cell-based, Toxoplasma gondii; conditions: Toxoplasma gondii; EGS strain in HFF; Figure 1A; read-out: Brady IC50
Protocol: HFF cells were grown in IMDM on removable, sterile glass cover slips in the bottom of a clear, flat-bottomed 24-well plate. Cultures were infected with 3 × 10^4 EGS strain parasites per well, in 0.5 mL media. The plate was returned to incubator at 37°C overnight. The following day, the media was removed. Colorless IMDM and compounds were added to make various concentrations of the drug. Total volume was 0.5 mL. Two wells had media only, as a control. Plates were returned to the 37°C incubator for 72 h, checked once each 24 h. If tachyzoites were visible in the control before 72 h, cells were fixed and stained. Cells were fixed using 4% paraformaldehyde and stained with Fluorescein-labeled Dolichos Biflorus Agglutinin, DAPI, and antibody to BAG1. Disks were removed, mounted on glass slides, and visualized using microscopy (Nikon Tl7). Slides were scanned using a CRi Panoramic Scan Whole Slide Scanner and viewed using Panoramic Viewer Software. Effects of compounds were quantitated by counting cysts in controls and treated cultures. Dolichos staining delimited structures and single organisms that remained were counted in a representative field of view. This was then multiplied by a factor determined by the total area of the cover slip in order to estimate the number of cysts and organisms in each condition. When the following forms were observed: “true cysts” with a dolichos-staining wall, “pseudocysts” or tight clusters of parasites, and small organisms, if there were fewer than four parasites visible in a cluster, organisms were counted individually (as “small organisms”). The entire scanned coverslip with all fields was also reviewed by 3 observers to confirm consistency.

[3] = Kinetic solubility in PBS pH 7.4 (Chem Partners); conditions: PBS; for solubility kinetic: pH 7.4, aqueous buffer, kinetic from dmso stock
Protocol: (§1) The effects of changing R1 as 7-Et, 7-Me, 6-CF3, or 6-Me on activity against RH strain tachyzoites, kinetic solubility, and metabolic stability were compared. Kinetic solubility and metabolic stability in human or murine liver microsomes were measured. The hERG (human Ether-à-go-go-Related) liability was also determined. The hERG gene (KCNH2) encodes a protein Kv11.1, the alpha subunit of a potassium ion channel. This channel conducts the rapid component of the delayed rectifier potassium current, IKr, which is critical for repolarization of cardiac action potentials. A reduction in hERG currents from adverse drug effects can lead to long QT interval syndromes. These syndromes are characterized by action potential prolongation, lengthening of the QT interval on surface EKG, and an increased risk for “torsade de pointes” arrhythmias and sudden death. The MDCK-MDR1 Permeability Assay was also performed. MDCK-MDR1 refers to the ability of a compound to permeate across membranes of MDCK-MDR1 (Madin Darby canine kidney [MDCK] cells with the MDR1 gene [ABCB1], the gene encoding for the efflux protein, P-glycoprotein (P-gp)) in vitro. Assessing transport in both directions (apical to basolateral and basolateral to apical) across the cell monolayers enables an efflux ratio to be determined. […] This provides a prediction of blood brain barrier (BBB) penetration potential/permeability and efflux ratio. Effect in CACO-2 (Colon Adenocarcinoma cells) as a permeability assay and on cytochrome P450 (CYP 450) were also determined. CYP enzymes catalyze oxidative biotransformation (phase 1 metabolism) of most drugs. CYP enzymes, bind to membranes in a cell (cyto) and contain a heme pigment (chrome and P) that absorbs light at a wavelength of 450 nm when exposed to carbon monoxide. Metabolism of a drug by CYP enzymes is a major source of variability in drug effect. These were measured by Chem Partners. The relative effect on HFF and parasite enzymes also were compared.

[4] = Metabolic stability in human liver microsomes; conditions: human, liver microsomes
Protocol: as §1
(§2) In vitro absorption, distribution, metabolism, excretion, and toxicity (ADMET) analyses of the THQ compounds were outsourced to ChemPartner Shanghai Ltd. ELQ-271 (synthesized in-house) was tested as a comparison.

[5] = Metabolic stability in mouse liver microsomes; conditions: mouse, liver microsomes, T1/2 (M), predicted half-life in mouse liver microsomes; Figure 1A; min in Figure 2E for the same values
Protocol: as §1, §2

Row | SMILES | IC50 [1] [nM] | IC50 [2] [nM] | solubility kinetic [3] [µM] | half-life [4] [h] | half-life [5] [h] | solubility ([3]; pH 7.4, aqueous solubility (PBS, pH 7.4), amorphous compounds) [µM]
1 | Cc1[nH]c2c(c(=O)c1-c1ccc(Oc3cccc(F)c3)cc1)CCCC2 [JAG069] | 30 | 1000 | 0.5 (≈ 0.175 µg/mL) | 3.37 | 0.29 | –
2 | Cc1[nH]c2c(c(=O)c1-c1ccc(Oc3ccc(OC(F)(F)F)cc3)cc1)CC(C(F)(F)F)CC2 (centres unmarked) [JAG100] | > 10000 | – | – | – | – | –
3 | Cc1[nH]c2ccnn2c(=O)c1-c1ccc(Oc2ccc(OC(F)(F)F)cc2)cc1 [MJM141] | 8200 | 10000 | 0.94 (≈ 0.377 µg/mL) | 4.64 | – | –
4 | Cc1[nH]c2c(c(=O)c1-c1ccc(Oc3ccc(OC(F)(F)F)cc3)cc1)CC(C)CC2 (centres unmarked) [JAG106] | 2500 | – | – | – | – | –
5 | Cc1[nH]c2c(c(=O)c1-c1ccc(Oc3ccc4c(c3)OCO4)cc1)CCCC2 [AS032] | 200 | – | – | – | – | –
6 | Cc1[nH]c2c(c(=O)c1-c1ccc(Oc3cccc(Cl)c3)cc1)CCCC2 [JAG062] | 16 | 1000 | 0.33 (≈ 0.121 µg/mL) | 2.26 | 0.207 | –
7 | Cc1[nH]c2cnccc2c(=O)c1-c1ccc(Oc2ccc(OC(F)(F)F)cc2)cc1 [JAG129] | 85 | – | 5.12 (≈ 2.11 µg/mL) | – | – | –
8 | O=c1c2c([nH]c(CO)c1-c1ccc(Oc3ccc(OC(F)(F)F)cc3)cc1)CC(C(F)(F)F)CC2 (centres unmarked) [JAG187] | 2000 | – | – | – | – | –
9 | Cc1c(-c2ccc(Oc3ccc(OC(F)(F)F)cc3)cc2)c(=O)c2c(n1C)CCCC2 [JAG023] | 800 | – | – | – | – | –
10 | Cc1[nH]c2c(c(=O)c1-c1ccc(Oc3cccc(OC(F)(F)F)c3)cc1)CCCC2 [AS006] | 60 | 1000 | 0.55 (≈ 0.228 µg/mL) | – | 0.431 | –
11 | Cc1[nH]c2c(c(=O)c1-c1ccc(Oc3ccc(C(F)(F)F)cc3)cc1)CCCC2 [JAG063] | 200 | – | 0.45 (≈ 0.18 µg/mL) | 8.94 | 2.12 | –
12 | CCOC(=O)Oc1c2c(nc(C)c1-c1ccc(Oc3ccc(OC(F)(F)F)cc3)cc1)CCCC2 [JAG171] | 100 | – | – | – | – | –
13 | CCC1CCc2c([nH]c(CO)c(-c3ccc(Oc4ccc(OC(F)(F)F)cc4)cc3)c2=O)C1 (centres unmarked) [JAG174] | 380 | – | – | – | – | –
14 | Cc1[nH]c2ccccc2c(=O)c1-c1ccc(Oc2ccccc2)cc1 [MJM129] | 50 | > 10000 | – | – | – | –
15 | Cc1[nH]c2ccccc2c(=O)c1-c1ccc(Oc2ccc(OC(F)(F)F)cc2)cc1 [ELQ271, reference compound] | 30 | 5000 | – | – | 7.47 | 0.2 (≈ 0.0823 µg/mL)
16 | Cc1[nH]c2c(c(=O)c1-c1ccc(Oc3ccc(F)cc3)cc1)CCCC2 [JAG058] | 40 | 1000 | 2.38 (≈ 0.832 µg/mL) | 4.39 | 0.653 | –
17 | Cc1[nH]c2c(c(=O)c1-c1ccc(Oc3cc(Cl)cc(Cl)c3)cc1)CCC(C)C2 (centres unmarked) [JAG208] | 20 | 1000 | – | – | – | –
18 | Cc1[nH]c2c(c(=O)c1-c1ccc(Oc3cc(Cl)cc(Cl)c3)cc1)CCCC2 [AS022] | 30 | 1000 | 6.25 (≈ 2.5 µg/mL) | – | 0.477 | –
19 | Cc1[nH]c2c(c(=O)c1-c1ccc(O)cc1)CCCC2 [JAG094] | 1000 | – | – | – | – | –
20 | Cc1[nH]c2c(c(=O)c1-c1ccc(Oc3cccc(C(F)(F)F)c3)cc1)CCCC2 [AS012] | 260 | – | 2.19 (≈ 0.875 µg/mL) | – | 0.501 | –
21 | Cc1[nH]c2c(c(=O)c1-c1ccc(Oc3cc(Cl)nc(Cl)c3)cc1)CCCC2 [AS034] | 280 | – | 5.05 (≈ 2.03 µg/mL) | – | 0.415 | –
22 | O=C(O)c1[nH]c2c(c(=O)c1-c1ccc(Oc3ccc(OC(F)(F)F)cc3)cc1)CCCC2 [JAG091] | > 10000 | – | – | – | – | –
23 | Cc1[nH]c2c(c(=O)c1-c1ccc(Oc3ccc(Cl)c(Cl)c3)cc1)CCCC2 [JAG084] | 55 | 1000 | 0.68 (≈ 0.272 µg/mL) | – | 1.05 | –
24 | Cc1[nH]c2c(c(=O)c1-c1ccc(Oc3ccc(OC(F)(F)F)cc3)cc1)CCC(C)C2 (centres unmarked) [JAG107] | 50 | – | 0.03 (≈ 0.0129 µg/mL) | – | 1.87 | –
25 | CCC1CCc2c([nH]c(C)c(-c3ccc(Oc4ccc(OC(F)(F)F)cc4)cc3)c2=O)C1 (centres unmarked) [JAG121] | 55 | – | 0.16 (≈ 0.071 µg/mL) | – | 1.05 | –
26 | Cc1[nH]c2c(c(=O)c1-c1ccc(Oc3ccc(F)c(Cl)c3)cc1)CCCC2 [AS021] | 65 | 1000 | 2 (≈ 0.768 µg/mL) | – | 0.685 | –
27 | Cc1[nH]c2c(c(=O)c1-c1ccc(Oc3ccc(OC(F)(F)F)cc3)cc1)CCC(C(F)(F)F)C2 (centres unmarked) [JAG162] | 300 | – | 0.02 (≈ 0.00967 µg/mL) | – | 2.41 | –
28 | CC1CCc2c([nH]c(CO)c(-c3ccc(Oc4ccc(OC(F)(F)F)cc4)cc3)c2=O)C1 (centres unmarked) [JAG193] | 50 | – | – | – | – | –
